Test results: ChEMBL document CHEMBL1151538, “Rearrangement of unsymmetrical azetidinone disulfides to 2-(heterocyclylthiomethyl)penams, a synthetic approach to new -lactamase inhibitors” (Bioorg Med Chem Lett, 1993)

Experiments:
[1] = biological target: T1, Beta-lactamase SHV-1 (Escherichia coli, UniProt P0AD63); assay: Inhibitory activity against Escherichia coli HA208 Class-III SHV-1 type beta-lactamase enzyme
T1 sequence (P0AD63 whole entry): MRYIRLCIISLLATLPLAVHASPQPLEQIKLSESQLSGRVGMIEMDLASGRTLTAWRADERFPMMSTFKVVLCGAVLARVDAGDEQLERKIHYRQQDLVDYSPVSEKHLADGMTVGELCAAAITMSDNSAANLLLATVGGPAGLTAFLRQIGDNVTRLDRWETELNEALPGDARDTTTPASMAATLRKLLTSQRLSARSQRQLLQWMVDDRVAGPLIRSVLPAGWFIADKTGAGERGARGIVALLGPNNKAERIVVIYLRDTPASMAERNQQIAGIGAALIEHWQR

[2] = biological target: T2, Beta-lactamase (Klebsiella oxytoca, UniProt Q8RT60); assay: Inhibitory activity against Klebsiella oxytoca HC7 Class-IV K1 type beta-lactamase enzyme
T2 sequence (Q8RT60 whole entry): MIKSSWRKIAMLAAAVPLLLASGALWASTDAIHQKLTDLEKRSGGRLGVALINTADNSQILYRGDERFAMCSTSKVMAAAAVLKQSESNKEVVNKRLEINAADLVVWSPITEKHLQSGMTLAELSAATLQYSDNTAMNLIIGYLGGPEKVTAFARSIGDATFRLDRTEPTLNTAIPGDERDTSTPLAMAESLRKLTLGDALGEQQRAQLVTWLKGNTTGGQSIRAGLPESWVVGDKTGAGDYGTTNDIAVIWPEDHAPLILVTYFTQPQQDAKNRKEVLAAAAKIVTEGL

[3] = biological target: Beta-lactamase (Staphylococcus aureus, UniProt P00807); assay: Inhibitory activity against Staphylococcus aureus CJ8 beta-lactamase enzyme
Chain of Beta-lactamase (Staphylococcus aureus, UniProt P00807) (P00807 whole entry): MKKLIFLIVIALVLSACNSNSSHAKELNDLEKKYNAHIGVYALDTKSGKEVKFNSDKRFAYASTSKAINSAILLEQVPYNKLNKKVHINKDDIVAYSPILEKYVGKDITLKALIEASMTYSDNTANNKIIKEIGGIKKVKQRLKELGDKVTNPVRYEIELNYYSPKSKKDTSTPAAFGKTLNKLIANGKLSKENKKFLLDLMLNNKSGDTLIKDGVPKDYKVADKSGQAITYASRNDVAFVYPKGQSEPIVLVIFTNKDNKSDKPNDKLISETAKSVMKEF

[4] = biological target: Beta-lactamase TEM (Escherichia coli, UniProt P62593); assay: Inhibitory activity against Escherichia coli HA58R Class-III TEM-1 type beta-lactamase enzyme
Chain of Beta-lactamase TEM (P62593 whole entry): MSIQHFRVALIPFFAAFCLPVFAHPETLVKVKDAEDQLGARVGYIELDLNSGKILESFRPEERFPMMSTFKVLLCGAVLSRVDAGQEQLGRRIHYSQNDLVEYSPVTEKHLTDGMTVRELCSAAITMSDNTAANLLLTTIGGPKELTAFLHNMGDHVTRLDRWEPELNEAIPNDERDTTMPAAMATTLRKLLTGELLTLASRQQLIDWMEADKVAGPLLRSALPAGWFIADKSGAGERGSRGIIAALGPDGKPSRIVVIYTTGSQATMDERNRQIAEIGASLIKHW

[5] = biological target: Beta-lactamase (Enterobacter cloacae, UniProt P05364); assay: Inhibitory activity against Enterobacter cloacae HC8 Class-I beta-lactamase enzyme type P99
Chain of Beta-lactamase (Enterobacter cloacae, UniProt P05364) (P05364 whole entry): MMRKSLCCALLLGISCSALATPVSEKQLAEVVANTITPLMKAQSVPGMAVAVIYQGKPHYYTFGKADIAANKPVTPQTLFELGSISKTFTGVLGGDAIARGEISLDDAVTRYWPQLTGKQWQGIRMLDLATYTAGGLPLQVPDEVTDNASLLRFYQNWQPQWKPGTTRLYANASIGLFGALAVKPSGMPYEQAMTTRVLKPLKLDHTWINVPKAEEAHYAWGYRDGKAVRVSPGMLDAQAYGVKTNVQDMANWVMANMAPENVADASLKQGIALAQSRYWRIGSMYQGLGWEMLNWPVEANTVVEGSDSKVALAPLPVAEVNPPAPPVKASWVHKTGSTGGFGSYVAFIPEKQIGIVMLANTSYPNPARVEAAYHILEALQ

[6] = biological target: Beta-lactamase (Citrobacter freundii, UniProt P05193); assay: Inhibitory activity against Citrobacter freundii 87470 Class-I beta-lactamase enzyme
Chain of Beta-lactamase (Citrobacter freundii, UniProt P05193) (P05193 whole entry): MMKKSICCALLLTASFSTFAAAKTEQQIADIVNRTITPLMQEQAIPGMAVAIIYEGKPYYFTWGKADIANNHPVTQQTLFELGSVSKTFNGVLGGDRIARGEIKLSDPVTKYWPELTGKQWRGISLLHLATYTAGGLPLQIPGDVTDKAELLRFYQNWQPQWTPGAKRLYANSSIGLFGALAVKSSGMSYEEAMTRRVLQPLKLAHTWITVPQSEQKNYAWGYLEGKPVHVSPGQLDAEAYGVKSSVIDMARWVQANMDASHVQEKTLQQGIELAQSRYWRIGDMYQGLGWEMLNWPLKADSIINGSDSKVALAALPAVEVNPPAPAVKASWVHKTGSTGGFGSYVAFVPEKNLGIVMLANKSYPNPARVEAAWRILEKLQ

[7] = biological target: T3, Beta-lactamase BRO-1 (Moraxella catarrhalis, UniProt Q59514); assay: Inhibitory activity against Branhamella catarrhalis 89001 Class-III BRO-1 type beta-lactamase enzyme; parameters: species or system b.catarr
T3 sequence (Q59514 whole entry): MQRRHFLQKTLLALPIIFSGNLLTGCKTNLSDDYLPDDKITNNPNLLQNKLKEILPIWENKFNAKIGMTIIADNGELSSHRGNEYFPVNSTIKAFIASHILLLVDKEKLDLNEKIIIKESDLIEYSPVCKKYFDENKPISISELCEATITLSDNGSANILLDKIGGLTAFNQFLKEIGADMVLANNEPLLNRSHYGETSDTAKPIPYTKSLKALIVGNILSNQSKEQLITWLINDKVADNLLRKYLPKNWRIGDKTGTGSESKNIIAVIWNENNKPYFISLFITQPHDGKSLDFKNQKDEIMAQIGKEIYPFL

[8] = biological target: Beta-lactamase OXA-1 (Escherichia coli, UniProt P13661); assay: Inhibitory activity against Escherichia coli HA209 Class-V OXA-1 type beta-lactamase enzyme
Chain of Beta-lactamase OXA-1 (P13661 whole entry): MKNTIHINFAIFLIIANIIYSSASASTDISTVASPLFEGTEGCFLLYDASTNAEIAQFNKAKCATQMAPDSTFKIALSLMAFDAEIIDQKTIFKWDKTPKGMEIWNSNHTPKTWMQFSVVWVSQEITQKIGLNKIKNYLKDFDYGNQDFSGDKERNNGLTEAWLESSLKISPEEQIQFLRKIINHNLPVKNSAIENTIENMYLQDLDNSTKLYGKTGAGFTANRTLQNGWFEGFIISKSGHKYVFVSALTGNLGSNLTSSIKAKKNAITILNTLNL

Compound	IC50 [1]	IC50 [2]	IC50 [3]	IC50 [4]	IC50 [5]	IC50 [6]	IC50 [7]	IC50 [8]
C[C@@]1(CSc2nc3ccccc3o2)S[C@@H]2[C@H](Br)C(=O)N2[C@H]1C(=O)O	147 nM	1160 nM	116 nM	30.3 nM	18400 nM	14700 nM		
Cn1ccnc1SC[C@]1(C)S[C@@H]2[C@H](Br)C(=O)N2[C@H]1C(=O)O	51 nM			15.3 nM			63.7 nM	10200 nM
O=C(O)[C@H]1/C(=C/CO)O[C@@H]2CC(=O)N21 [CLAVULANIC ACID]							30.1 nM	
C[C@]1(CSC2=NCCS2)[C@H](C(=O)O)N2C(=O)C[C@H]2S1(=O)=O	371 nM			22.8 nM			2.85 nM	114 nM
C[C@@]1(CSc2nc3ccccc3s2)S[C@@H]2[C@H](Br)C(=O)N2[C@H]1C(=O)O	141 nM			35.9 nM			56.1 nM	1410 nM
CC1(C)[C@H](C(=O)O)N2C(=O)C[C@H]2S1(=O)=O [SULBACTAM]	1710 nM							1370 nM
Cn1ccnc1SC[C@@]1(C)[C@H](C(=O)O)N2C(=O)C[C@H]2S1(=O)=O	926 nM						2.9 nM	463 nM
C[C@]1(CSc2nc3ccccc3[nH]2)[C@H](C(=O)O)N2C(=O)C[C@H]2S1(=O)=O	655 nM			65.5 nM				
Cn1nnnc1SC[C@]1(C)S[C@@H]2[C@H](Br)C(=O)N2[C@H]1C(=O)O	1010 nM			101 nM			50.7 nM	8120 nM
Cn1nnnc1SC[C@@]1(C)[C@H](C(=O)O)N2C(=O)C[C@H]2S1(=O)=O	72 nM			17.3 nM			8.64 nM	92.1 nM
C[C@]1(Cn2ccnn2)[C@H](C(=O)O)N2C(=O)C[C@H]2S1(=O)=O [TAZOBACTAM]	133 nM						33.3 nM	
Cn1cnnc1SC[C@@]1(C)[C@H](C(=O)O)N2C(=O)C[C@H]2S1(=O)=O	577 nM			72.2 nM			2.89 nM	
C[C@]1(CSc2nc3ccccc3o2)[C@H](C(=O)O)N2C(=O)C[C@H]2S1(=O)=O				10.5 nM				83.7 nM
